US8946302B2, “Selective sigma-1 receptor ligands” (Wisconsin Alumni Research Foundation, priority 2008, dated 2015)

What was measured:
[1] = molecular target: T1, sigma-1 receptor (Rattus norvegicus, UniProt Q9R0C9); assay: Protection of [125I]-IACoc photolabeling in rat liver membranes; type: binding
T1 construct: from tissue; host or cells: rat liver membranes
Procedure: (§4) Rat liver membranes (100 μg/lane) were suspended in the presence or absence of the protecting drugs. […] Percent band intensities are shown compared to controls performed in the absence of protecting ligand (−).

[2] = molecular target: T1, sigma-1 receptor; assay: Protection of [125I]IAF photolabeling of the sigma-1 receptor in rat liver membranes; type: binding
Procedure: as §4

[3] = system: hNav1.5; assay: Patch clamp INa in COS-7 cells transiently transfected with hNav1.5; type: cell-based, human; settings: 100 μM, n=3
Procedure: (§1) To evaluate the capacity of DMT to induce physiological responses by binding to sigma receptors, the action of DMT on voltage-activated Na^+ current was examined. […] Application of 100 μM DMT inhibited INa by 62±3% (n=3), which reversed upon DMT removal. With hNav1.5 transiently transfected into COS-7 cells, 100 μM DMT inhibited INa by only 22±4% (n=3), but photolabeling has shown that these cells have much lower levels of endogenous sigma-1 receptor compared to HEK293 cells (26) (FIG. 7b).
(§2) HEK293 cells stably expressing hNav1.5 were provided by Dr. J. C. Makielski at the University of Wisconsin-Madison (32). COS-7 cells were transiently transfected with recombinant cDNA encoding hNav1.5 using Lipofectamine. Both cell types were cultured on glass coverslips at 37° C. in 5% CO2/air atmosphere, and used for electrophysiological recordings within 3-5 days.
(§3) INa was recorded using whole-cell patch clamp at room temperature. All patch clamp solutions used as well as patch clamp methodology and instrumentation details are previously described (26) with the exception of testing INa inhibition with 100 μM DMT.

[4] = system: INa in neonatal mouse cardiac myocytes; assay: Patch clamp INa in neonatal cardiac myocytes from WT and sigma-1 receptor KO mice; type: cell-based; settings: n=7
Procedure: Neonatal mouse cardiac myocytes were enzymatically isolated and cultured on laminin-coated glass coverslips as previously described (33, 34) with minor changes (26).
as §3

[5] = system: human cardiac Na+ channel hNav1.5; assay: Patch clamp INa in HEK293 cells stably expressing hNav1.5; type: cell-based; settings: 100 μM, n=3
Procedure: as §1, §2, §3

[6] = system: WT and sigma-1 receptor knockout mice; assay: Open-field hypermobility assay in WT and sigma-1 receptor KO mice; type: in vivo, mouse; settings: 2 mg/kg i.p. two hours after pargyline 75 mg/kg i.p.
Procedure: All mice were maintained on a normal light/dark cycle and handled in accordance with Animal Care and Use Guidelines of the University of Wisconsin, Madison. […] Mice were first acclimatized to the experimental room for one hour. WT and KO mice were injected with the monoamine oxidase inhibitor, pargyline (75 mg/kg, i.p.) two hours prior to DMT or vehicle injection(28). […] Each condition represents 8 to 14 mice (n=8-14). […] A computer program was used to quantitate movement and after each experiment, 70% ethanol was used to remove odors from the open-field.

[7] = molecular target: sigma-1 receptor (Cavia porcellus, UniProt Q60492); assay: Affinity for the sigma-1 receptor (Table 3); type: binding; set-up: from tissue
sigma-1 receptor (Cavia porcellus, UniProt Q60492), sequence (Q60492 whole entry): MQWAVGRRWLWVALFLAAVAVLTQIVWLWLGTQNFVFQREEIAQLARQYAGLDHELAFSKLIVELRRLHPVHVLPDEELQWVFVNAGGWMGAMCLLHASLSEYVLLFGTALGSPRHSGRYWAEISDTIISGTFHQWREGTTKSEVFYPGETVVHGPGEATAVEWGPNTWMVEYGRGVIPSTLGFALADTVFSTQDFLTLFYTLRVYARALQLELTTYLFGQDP

T1 sequence (Q9R0C9 whole entry): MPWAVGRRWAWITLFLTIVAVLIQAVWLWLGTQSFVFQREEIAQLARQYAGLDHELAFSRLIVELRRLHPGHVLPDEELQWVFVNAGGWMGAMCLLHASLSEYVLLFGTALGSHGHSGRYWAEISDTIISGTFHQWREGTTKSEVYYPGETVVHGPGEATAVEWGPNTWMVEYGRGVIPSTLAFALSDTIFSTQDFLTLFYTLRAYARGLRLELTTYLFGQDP

## CN(C)CCc1c[nH]c2ccccc12 [DMT, 2-(1H-indol-3-yl)-N,N-dimethylethylamine]
[1]; 50 μM
  protection of [125I]-IACoc photolabeling of the 26 kDa sigma-1 receptor: 61%
[1]; 100 μM
  protection of [125I]-IACoc photolabeling of the 26 kDa sigma-1 receptor: ~100%
[2]; 10 μM
  protection of [125I]IAF photolabeling of the sigma-1 receptor: 31%
[2]; 50 μM
  protection of [125I]IAF photolabeling of the sigma-1 receptor: 43%
[2]; 100 μM
  protection of [125I]IAF photolabeling of the sigma-1 receptor: 69%
[3]
  inhibition of INa: 22±4%
[4]; KO myocytes
  inhibition at 100 µM: 7 ± 2%
[4]; WT neonatal cardiac myocytes
  inhibition at 100 µM: 29 ± 3%
[5]
  inhibition of INa: 62±3%
[6]; WT mice
  distance traveled in open-field assay (hypermobility): 7025±524.1 cm
[6]; sigma-1 receptor KO mice
  distance traveled in open-field assay (hypermobility): 2328±322.9 cm
[7]
  Kd: 14.6 µM
